Experimental findings from patent US20190092720A1, “FUNCTIONALIZED BENZAMIDE DERIVATIVES AS ANTIVIRAL AGENTS AGAINST HBV INFECTION” (BARUCH S. BLUMBERG INSTITUTE, priority 2012, published 2019) are described below.

For one data set, the system named is HBV capsids. The data set can be described thus: Particle gel assay of nucleocapsids in AML12HBV10 cells. Type of data set: cell-based, Hepatitis B virus (HBV). Particulars: 2 days, FIG. 1 panel B. How it is done:
(§1) FIG. 1. Antiviral mechanism of the compounds of the present invention. AML12HBV10 cells were left untreated (NT) or treated with the indicated concentrations of the compounds of the disclosure Compound 6 and Compound 19, respectively, for 2 days. Bay-4109 (3 µM) or AT-61 (25 µM) served as positive controls. (A) Intracellular viral RNA was determined by Northern blot hybridization. Ribosomal RNA served as a loading control. (B) The total amounts of nucleocapsids were determined by a particle gel assay. (C) Encapsidated pgRNA were extracted and measured by Northern blot. (D) Nucleocapsid-associated HBV DNA was quantified by alkaline-treatment of nucleocapsids on the membrane following the particle gel assay and hybridized with a HBV-specific riboprobe. (E) HBV DNA replication intermediates were extracted and determined by Southern blot hybridizations.
Procedures of viral capsids and nucleocapsid-associated DNA analysis: AML12HB10 cells were lysed by addition of 300 μl buffer containing 10 mM Tris-HCl (pH7.6), 100 mM NaCl, 1 mM EDTA and 0.1% NP-40 to each well of 12-well plate. Cell debries were removed by centrifugation at 5000 g for 10 minutes. Ten microliters of the clarified cell lysates were fractionated by electrophoresis through nondenaturing 1% agarose gels and transferred to a nitrocellulose filter by blotting with TNE buffer (10 mM Tris-HCl, pH7.6; 150 mM NaCl and 1 mM EDTA). HBV capsids were detected by probing the membrane with an antibody against HBV core protein (DAKO). […] To detect capsid associated HBV DNA, the membrane were treated with buffer containing 0.5N NaOH and 1.5 M NaCl for 5 minutes and followed by neutralization with buffer containing 1 M TRIS-HCl and 1.5M NaCl for 5 minutes. The viral DNA was detected by hybridization with a α-^32P-UTP (800 Ci/mmol, Perkin Elmer) labeled minus strand specific full-length HBV riboprobe (Xu et al.).

For another data set, the system named is encapsidated pgRNA. The data set can be described thus: Encapsidated pgRNA by Northern blot in AML12HBV10 cells. Type of data set: cell-based, Hepatitis B virus (HBV). The settings on record: 2 days, FIG. 1 panel C. How it is done: as §1
Determination of encapsidated pgRNA: AML12HBV10 cells were lysed by addition of 600 μl of lysis buffer (50 mM Tris-HCl [pH 7.5], 1 mM EDTA, 150 mM NaCl, 1% NP-40) into each well of 12-well plates. The nuclei were removed by centrifugation at 5,000 g for 10 minutes. One-half of the sample was mixed with 6 U of micrococcal nuclease (Pharmacia) and 15 μl of 100 mM CaCl2 and incubated for 15 minutes at 37° C. to digest free nucleic acids. The reaction was stopped with 6 μl of 0.5 M EDTA, and capsids were precipitated by adding 125 μl of 35% polyethylene glycol 8000 in 1.75 M NaCl to the reaction and incubating in ice for 30 minutes, followed by centrifugation at 6,000 g for 10 minutes at 4° C. Pellets were re-suspended in 50 μl of TNE buffer (10 mM Tris-HCl [pH 8], 100 mM NaCl, 1 mM EDTA). pgRNA was extracted by the addition of 1 ml of Trizol reagent. The encapsidated pgRNA were electrophoresed through a 2.2 M formaldehyde-1% agarose gel, transferred to a nylon membrane, and immobilized by UV cross-linking (Stratagene). Hybridization was performed with an alpha-^32P-UTP labeled riboprobe specific for plus strand of HBV genome.

Data set [1] is described as follows: Cytotoxicity in AML12HBV10 cells (MTT assay). The format is cell-based, murine. Particulars: mouse, concentration that reduces viability by 50%, serial dilution 50 μM to 0.39 μM. How it is done: Determination of cytotoxicity of compounds of the disclosure in AML12HBV10 cells: To determine the cytotoxicity of the compounds, AML12HBV10 cells were seeded into 96-well plates at a density of 2×10^4 cells per well and cultured in DMEM/F12 media with 10% fetal bovine serum in the absence of tetracycline to allow pgRNA transcription and HBV DNA replication. One day after seeding, cells were left untreated or treated with a serial dilution of testing compounds, ranging from 50 μM to 0.39 μM, for 48 hours. The cell viability was measured by a MTT assay, following procedure provided by the manufacturer (Promega). The cytotoxicity of a compound was expressed as the concentration of compound that reduces the viability of the cells by 50% (CC50).
(In general: Tetrazolium assays rely on reduction of a dye to a coloured formazan, in cell work by metabolically active cells.)

Data set [2] relates to HBV replication in AML12HBV10 cells. Description: Antiviral efficacy in AML12HBV10 cells (HBV DNA dot-blot hybridization). The format is cell-based, Hepatitis B virus (HBV). The settings on record: Hepatitis B virus, AML12HBV10, 48 h, read-out: AML12HBV10 EC50, concentration that reduces the amount of HBV DNA by 50%, serial dilution 50 μM to 0.39 μM. How it is done:
The HBV replication inhibitors of the present invention are capable of treating and preventing diseases associated with HBV infection.
The antiviral efficacy of the compounds of the disclosure, as presented in Table 1, were determined in AML12HBV10 cells. AML12HBV10 is an immortalized murine hepatocyte (AML12)-derived stable cell line that supports robust HBV replication in a tetracycline inducible manner (Xu et al.). The cells were seeded into 96 well plates at a density of 2×10^4 cells per well and cultured in DMEM/F12 media with 10% fetal bovine serum in the absence of tetracycline to allow pgRNA transcription and HBV DNA replication. One day after seeding, cells were left untreated or treated with a serial dilution of testing compounds, ranging from 50 μM to 0.39 μM, for 48 hours. Cells were then lysed by adding into each well of 100 μl lysis buffer containing 10 mM Tris-HCl (pH 7.6), 1 mM EDTA, 100 mM NaCl and 1% NP-40 and incubated at 37° C. for 30 minutes. Half amount (50 μl) of cell lysate from each well was combined with equal volume of denaturing solution containing 0.5N NaOH and 1.5M NaCl. After 5 minute incubation, 100 µl of neutralization solution (1M Tris-HCl, pH 7.4, 1.5M NaCl) was added into each well. The denatured cell lysates (totally 200 μl) were applied onto Nylon membrane using 96-well dot-blot manifold (Biorad). HBV DNA in the cell lysates were determined by dot-blot hybridization with alpha-^32P-UTP-labelled riboprobe specific for HBV minus strand DNA. The antiviral efficacy of a compound of the disclosure was expressed as the concentration that reduces the amount of HBV DNA by 50% (EC50).

For a further data set, the system named is HBV mRNA. Description: Intracellular viral RNA by Northern blot in AML12HBV10 cells. Particulars: 2 days, FIG. 1 panel A. The format is cell-based, Hepatitis B virus (HBV). How it is done:
as §1
Procedure for analysis of HBV mRNA: Upon the completion of treatment, total cellular RNA was extracted with TRIzol reagents (Invitrogen). Five micrograms of total RNA was resolved in 1.5% agarose gel containing 2.2 M formadelhyde and transferred onto Hybond-XL membrane in 20×SSC buffer. The amounts of HBV mRNA were determined by Northern blot hybridization with an alpha-^32P-UTP labeled riboprobe specific for plus strand of HBV genome.

What is called CC50 is the concentration at which the toxic effect on the cells reaches its halfway point. A higher CC50 goes with better tolerance by the cells. On to `O=C(Nc1cccc(Cl)c1)c1scc2c1OCCO2` [Entry 6], for which the capsid formation entry with HBV capsids was “did not significantly affect”. In addition, the “level of encapsidated pgRNA” value in the data set on encapsidated pgRNA was “dose-dependently reduced”. The CC50 at 48 h in data set [1] was more than 50000 nM. In addition, in data set [2], the EC50 came out at 400 nM. For the same compound, in the data set with HBV mRNA, the “amount of viral mRNA” value is “did not affect”.
